In patent publication US20240174637A1, “DEGRADERS OF GRK2 AND USES THEREOF” (Sonata Therapeutics, Inc., priority 2021, published 2024):
Like-named read-outs stand apart in the source and are kept apart here. Each block holds one compound with its values, some of them ahead of it.

What was measured:
GRK2 [1] = target: T1, GRK2 (Homo sapiens, UniProt P25098); test: GRK2 Inhibition Assay (TR-FRET, Example 1); format: biochemical; details: TR-FRET, 7 μM ATP; read-out: Enzymatic GRK2 Assay: IC50 (nM) (Example 1)
T1 sequence (P25098 1-689): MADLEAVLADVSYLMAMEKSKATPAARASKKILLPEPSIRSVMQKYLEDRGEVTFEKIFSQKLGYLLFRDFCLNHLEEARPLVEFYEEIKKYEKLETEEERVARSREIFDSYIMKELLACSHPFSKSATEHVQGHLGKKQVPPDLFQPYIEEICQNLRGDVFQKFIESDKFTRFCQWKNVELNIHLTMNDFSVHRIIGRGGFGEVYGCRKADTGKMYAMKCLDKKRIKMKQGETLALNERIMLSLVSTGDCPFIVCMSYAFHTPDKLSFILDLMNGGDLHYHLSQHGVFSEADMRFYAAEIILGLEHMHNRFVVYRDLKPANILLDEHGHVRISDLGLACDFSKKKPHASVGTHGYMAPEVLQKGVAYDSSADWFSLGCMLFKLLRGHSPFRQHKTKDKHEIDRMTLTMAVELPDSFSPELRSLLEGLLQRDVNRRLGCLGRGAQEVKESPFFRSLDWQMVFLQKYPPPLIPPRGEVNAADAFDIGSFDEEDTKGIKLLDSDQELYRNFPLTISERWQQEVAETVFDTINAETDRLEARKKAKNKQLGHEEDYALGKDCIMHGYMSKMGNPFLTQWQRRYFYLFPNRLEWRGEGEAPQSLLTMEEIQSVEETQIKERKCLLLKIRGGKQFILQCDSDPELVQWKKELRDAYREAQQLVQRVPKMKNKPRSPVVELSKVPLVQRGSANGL
Procedure: Assay: GRK2 enzyme (1 nM final concentration) was diluted in 25 mM HEPES, 10 mM MgCl2, 2 mM DTT, 0.01% Tween-20, and 1 mM EGTA. Then the GRK2 mixture was added into ProxiPlate-384 white plate and pre-incubated for 30 min with test compounds at room temperature. ATP (7 μM final concentration) and Ulight TopoIIα (50 nM final concentration) were added into the assay plate to initiate the reaction and the mixture was incubated at room temperature for 90 min. Then, Eu anti-TopoIIα (0.12 nM final concentration), BSA (0.01% final concentration), and EDTA (11 mM final concentration) in LANCE assay buffer were added into each well. After 60 min incubation time at room temperature, TR-FRET signal was measured by EnVision plate reader.

GRK2 [2] = target: T1, GRK2; test: GRK2 Degradation Assay and Western Blot in PAXF1657 cells; format: cell-based; design: endogenous in cells; host or cells: PAXF1657
Procedure: General Protocol: Degradation Assay and Western Blot. PAXF1657 cells were plated in 6-well, 24-well plates or 60 mm tissue culture treated dishes and incubated at 37° C. until 70% confluency. The media was aspirated, and the cells were treated with fresh media containing the compounds in the concentration range of 0 μM to 10 μM for a period of 6 to 24 hours. At the desired time points the cells were washed twice with cold PBS and lysed with lysis buffer (ice cold PBS+1% NP40 with 1/100 protease/phosphatase inhibitors) on ice for 8 mins followed by sonication at 70% intensity pulses for 10 seconds. The cells were centrifuged at 20000 g for 8 min at 4° C. The supernatants were collected and stored at −80° C.
Samples were mixed with NuPAGE LDS sample buffer and NuPAGE sample reducing buffer (3×), vortexed and heated at 95° C. for 10 min, and then analyzed by SDS-PAGE (NuPAGE 4-12%) followed by transfer to nitrocellulose membrane. […] The membranes were washed three times with TBST and incubated with GRK2 or R-actin antibodies in 5% milk in TBST at 4° C. overnight. The membranes were washed three times with TBST and incubated with anti-mouse IgG-HRP or anti-rabbit IgG-HRP at room temperature for 2 hours in 5% milk in TBST. The membranes were washed three times with TBST and developed with ECL Dura, ECL femto or ECL atto substrates.

PAXF1657 EV = test: 7-day cellular proliferation assay (CellTiter-Glo), PAXF1657 EV; format: cell-based
Procedure: (§1) In order to identify compounds specific for GRK2, we generated two isogenic cell line pairs of the pancreatic cancer cell line PAXF1657, a pair of cells stably overexpressing GRK2 cDNA or the control empty vector and a cell line pair of PAXF1657 GRK2 knockout clonal cells versus non-targeting control clonal cells.
(§2) Proliferation Assay: Cellular anti-proliferative activity of compounds was assessed by using the pancreatic cancer cell line, PAXF1657, stably overexpressing GRK2 cDNA or the control empty vector, as well as the parental urinary bladder cancer cell line, 5637. In addition, we also took advantage of GRK2 knockout cell lines that were generated via CRISPR. Cell lines were seeded into tissue culture treated, white-walled, 96-well plates at a density of 500 cells/well in RPMI1640 media supplemented with 10% H.I. FBS and penicillin/streptomycin. Plates were incubated overnight at 37° C., 5% CO2 to allow cells to adhere to the wells. GRK2 inhibitors were added to the cells using a 10-point dilution series with a final concentration ranging from 30 μM-0.0002 μM in 0.3% DMSO. At the time of compound addition, a set of plates, that were not treated with compounds, were collected and cell viability was measured using CellTiter-Glo (Promega). CellTiter-Glo reagent was added to the designed plates and luminescence was measuring using a Biotek Synergy plate reader. The compound treated cells were incubated for 3 days at 37° C., 5% CO2. The media was then aspirated from each well and replaced with fresh media containing GRK2 inhibitors. The compound treated cells were then incubated for an additional 4 days at 37° C., 5% CO2. Cell viability was assessed and at end of the 7-day compound treatment by CellTiterGlo.

PAXF1657 KO Clone #4 = test: 7-day cellular proliferation assay (CellTiter-Glo), PAXF1657 KO Clone #4; format: cell-based
Procedure: as §1, §2

[3] = 1 uM, PAXF1657 EV, 24 hrs, read-out: % GRK2 degradation at 1 uM in PAXF1657 EV (24 hrs)
[4] = 3 uM, PAXF1657 EV, 24 hrs, read-out: % GRK2 degradation at 3 uM in PAXF1657 EV (24 hrs)
[5] = 168 h, 7-day, read-out: 7-day proliferation assay: IC50 GeoMean (uM) [Cell Line: PAXF1657 EV]
[6] = 168 h, 7-day, read-out: 7-day proliferation assay: IC50 GeoMean (uM) [Cell Line: PAXF1657 KO Clone #4]
[7] = Conc 0.3 uM, read-out: Degradation Assay - 3 point: Degradation (%)
[8] = Conc 1 uM, read-out: Degradation Assay - 3 point: Degradation (%)
[9] = Conc 3 uM, read-out: Degradation Assay - 3 point: Degradation (%)
[10] = proliferation, read-out: GeoMean IC50 (UM) PAXF1657 EV
[11] = proliferation, read-out: GeoMean IC50 (uM) PAXF1657 KO Clone #4

SMILES: Cc1ncsc1-c1ccc(CNC(=O)[C@@H]2C[C@@H](O)CN2C(=O)C(NC(=O)CCCCc2cn(CCCCCCOc3cccc(CNC(=O)c4cccc(NCc5nnc(-c6ccncn6)n5C)c4)c3)nn2)C(C)(C)C)cc1 (some centres unmarked) [Compound D84]
IC50 (GRK2 [1]): < 100 nM

SMILES: Cc1ncsc1-c1ccc(CNC(=O)[C@@H]2C[C@H](O)CN2C(=O)[C@@H](NC(=O)CCCCCOCCOCCOCCCCCCOc2cccc(CNC(=O)c3cccc(NCc4nnc(-c5ccncn5)n4C)c3)c2)C(C)(C)C)cc1 [Compound D89]
IC50 (GRK2 [1]): < 100 nM

SMILES: Cc1ncsc1-c1ccc(CNC(=O)[C@@H]2C[C@@H](O)CN2C(=O)[C@@H](NC(=O)CCCCCOCCOCCOCCCCCCOc2ccc(F)c([C@@H](C)NC(=O)c3cccc(NCc4nnc(-c5ccncn5)n4C)c3)c2)C(C)(C)C)cc1 [Compound D75, (2S,4R)-1-((S)-2-(tert-butyl)-22-(4-fluoro-3-((R)-1-(3-(((4-methyl-5-(pyrimidin-4-yl)-4H-1,2,4-triazol-3-yl)methyl)amino)benzamido)ethyl)phenoxy)-4-oxo-10,13,16-trioxa-3-azadocosan-1-oyl)-4-hydroxy-N-(4-(4-methylthiazol-5-yl)benzyl)pyrrolidine-2-carboxamide]
IC50 (GRK2 [1]): < 100 nM

SMILES: Cc1ncsc1-c1ccc(CNC(=O)[C@@H]2C[C@@H](O)CN2C(=O)[C@@H](NC(=O)CCCCCOCCOCCOCCCCCCOc2ccc(F)c([C@H](C)NC(=O)c3cccc(NCc4nnc(-c5ccncn5)n4C)c3)c2)C(C)(C)C)cc1 [Compound D74, (2S,4R)-1-((S)-2-(tert-butyl)-22-(4-fluoro-3-((S)-1-(3-(((4-methyl-5-(pyrimidin-4-yl)-4H-1,2,4-triazol-3-yl)methyl)amino)benzamido)ethyl)phenoxy)-4-oxo-10,13,16-trioxa-3-azadocosan-1-oyl)-4-hydroxy-N-(4-(4-methylthiazol-5-yl)benzyl)pyrrolidine-2-carboxamide]
IC50 (GRK2 [1]): 100 to 1000 nM

SMILES: Cc1ncsc1-c1ccc(CNC(=O)[C@@H]2C[C@@H](O)CN2C(=O)[C@@H](NC(=O)COCCCOCCCCCOc2ccc(CNC(=O)c3cccc(NCc4nnc(-c5ccncn5)n4C)c3)cc2)C(C)(C)C)cc1 [Compound D168]
inhibition at 0.3 µM (GRK2 [2]; [7]): 0.276%
inhibition at 1 µM (GRK2 [2]; [8]): -12%
inhibition at 3 µM (GRK2 [2]; [9]): -22%
IC50 (PAXF1657 EV; [10]): > 1.88 µM
IC50 (PAXF1657 KO Clone #4; [11]): 6.03 µM

Now from value to compound, other results behind:

IC50 (GRK2 [1]): 100 to 1000 nM
SMILES: Cc1ncsc1-c1ccc(CNC(=O)[C@@H]2C[C@@H](O)CN2C(=O)[C@@H](NC(=O)CCCCCOCCOCCOCCCCCCOc2ccc(F)c(CNC(=O)c3cccc(NCc4nnc(-c5ccncn5)n4C)c3)c2)C(C)(C)C)cc1 [Compound D88, (2S,4R)-1-((S)-2-(tert-butyl)-22-(4-fluoro-3-((3-(((4-methyl-5-(pyrimidin-4-yl)-4H-1,2,4-triazol-3-yl)methyl)amino)benzamido)methyl)phenoxy)-4-oxo-10,13,16-trioxa-3-azadocosan-1-oyl)-4-hydroxy-N-(4-(4-methylthiazol-5-yl)benzyl)pyrrolidine-2-carboxamide]

IC50 (GRK2 [1]): < 100 nM
SMILES: C[C@H](NC(=O)c1cccc(NCc2nnc(-c3ccncn3)n2C)c1)c1cccc(OCCCCCCOCCOCCOCCCCCC(=O)Nc2cccc3c2CN(C2CCC(=O)NC2=O)C3=O)c1 (stereo partly drawn) [Compound D55, N-((1S)-1-(3-((6-(2-(2-((6-((2-(2,6-dioxopiperidin-3-yl)-1-oxoisoindolin-4-yl)amino)-6-oxohexyl)oxy)ethoxy)ethoxy)hexyl)oxy)phenyl)ethyl)-3-(((4-methyl-5-(pyrimidin-4-yl)-4H-1,2,4-triazol-3-yl)methyl)amino)benzamide]

inhibition at 0.3 µM (GRK2 [2]; 0.3 uM, PAXF1657 EV, 24 hrs, read-out: % GRK2 degradation at 0.3 uM in PAXF1657 EV (24 hrs)): 7%
inhibition at 1 µM (GRK2 [2]; [3]): 41%
inhibition at 3 µM (GRK2 [2]; [4]): 68%
SMILES: Cn1c(CNc2cccc(C(=O)NCc3cccc(OCCCCCn4cc(CCCCC(=O)Nc5cccc6c5CN(C5CCC(=O)NC5=O)C6=O)nn4)c3)c2)nnc1-c1ccncn1 (centres unmarked) [Compound D58]
IC50 (PAXF1657 EV; [5]): 1 to 10 µM
IC50 (PAXF1657 KO Clone #4; [6]): > 10 µM

inhibition at 1 µM (GRK2 [2]; [3]): 19%
inhibition at 3 µM (GRK2 [2]; [4]): 20%
SMILES: Cn1c(CNc2cccc(C(=O)NCc3cccc(OCCOCCOCCOCCC(=O)Nc4cccc5c4CN(C4CCC(=O)NC4=O)C5=O)c3)c2)nnc1-c1ccncn1 (centres unmarked) [Compound D107]
IC50 (PAXF1657 EV; [5]): > 10 µM
IC50 (PAXF1657 KO Clone #4; [6]): > 10 µM

IC50 (GRK2 [1]): < 100 nM
SMILES: C[C@@H](NC(=O)c1cccc(NCc2nnc(-c3ccncn3)n2C)c1)c1cc(OCCCCCCOCCOCCOCCCCCC(=O)Nc2cccc3c2CN(C2CCC(=O)NC2=O)C3=O)ccc1F (stereo partly drawn) [Compound D54, N-((1R)-1-(5-((6-(2-(2-((6-((2-(2,6-dioxopiperidin-3-yl)-1-oxoisoindolin-4-yl)amino)-6-oxohexyl)oxy)ethoxy)ethoxy)hexyl)oxy)-2-fluorophenyl)ethyl)-3-(((4-methyl-5-(pyrimidin-4-yl)-4H-1,2,4-triazol-3-yl)methyl)amino)benzamide]

inhibition at 0.3 µM (GRK2 [2]; [7]): -8.15%
inhibition at 1 µM (GRK2 [2]; [8]): 2.96%
inhibition at 3 µM (GRK2 [2]; [9]): 11.5%
SMILES: Cn1c(CNc2cccc(C(=O)N[C@H]3CCOc4ccc(OCCCCCCOCCOCCOCCCCCC(=O)Nc5cccc6c5CN(C5CCC(=O)NC5=O)C6=O)cc43)c2)nnc1-c1ccncn1 (stereo partly drawn) [Compound D156, N-((4S)-6-(6-(2-(2-(6-(2-(2,6-dioxopiperidin-3-yl)-1-oxoisoindolin-4-ylamino)-6-oxohexyloxy)ethoxy)ethoxy)hexyloxy)chroman-4-yl)-3-((4-methyl-5-(pyrimidin-4-yl)-4H-1,2,4-triazol-3-yl)methylamino)benzamide]
IC50 (PAXF1657 EV; [10]): 2.15 µM
IC50 (PAXF1657 KO Clone #4; [11]): > 30 µM
